Data reported in patent publication US20160297833A1, “THIENOPYRIMIDINES AS MKNK1 AND MKNK2 INHIBITORS” (BAYER PHARMA AKTIENGESELLSCHAFT, priority 2013, published 2016).

Target: T1, human full-length MKNK1 (Homo sapiens, UniProt Q9BUB5, T385D)
T1 construct: GST (N); purchased Carna Biosciences 02-145; host or cells: insect cells (baculovirus expression system)
Test: MKNK1 kinase high ATP assay (TR-FRET)
Assay type: biochemical
Details: for IC50: Table 1, MKNK1 kinase high ATP assay, 2 mM ATP, read-out: MKNK1 IC50; for Activity-Ratio MKNK1: Table 2, ratio of the IC50-value of an R-enantiomer and its corresponding S-enantiomer
Experimental: MKNK1 Kinase High ATP Assay
MKNK1-inhibitory activity at high ATP of compounds of the present invention after their preincubation with MKNK1 was quantified employing the TR-FRET-based MKNK1 high ATP assay as described in the following paragraphs.
As substrate for the kinase reaction the biotinylated peptide biotin-Ahx-[…] (C-terminus in amide form) was used, which can be purchased e.g. from the company Biosyntan (Berlin-Buch, Germany).
For the assay 50 nL of a 100 fold concentrated solution of the test compound in DMSO was pipetted into a black low volume 384 well microtiter plate (Greiner Bio-One, Frickenhausen, Germany), 2 μL of a solution of MKNK1 in aqueous assay buffer [50 mM HEPES pH 7.5, 5 mM MgCl2, 1.0 mM dithiothreitol, 0.005% (v/v) Nonidet-P40 (Sigma)] was added and the mixture was incubated for 15 min at 22° C. to allow pre-binding of the test compounds to the enzyme before the start of the kinase reaction. Then the kinase reaction was started by the addition of 3 μL of a solution of adenosine-tri-phosphate (ATP, 3.3 mM=>final conc. in the 5 μL assay volume is 2 mM) and substrate (0.1 μM=>final conc. in the 5 μL assay volume is 0.06 μM) in assay buffer and the resulting mixture was incubated for a reaction time of 30 min at 22° C. The concentration of MKNK1 was adjusted depending of the activity of the enzyme lot and was chosen appropriate to have the assay in the linear range, typical concentrations were in the range of 0.003 μg/mL. The reaction was stopped by the addition of 5 μL of a solution of TR-FRET detection reagents (5 nM streptavidine-XL665 [Cisbio Bioassays, Codolet, France] and 1 nM anti-ribosomal protein S6 (pSer236)-antibody from Invitrogen [#44921G] and 1 nM LANCE EU-W1024 labeled ProteinG [Perkin-Elmer, product no. AD0071]) in an aqueous EDTA-solution (100 mM EDTA, 0.1% (w/v) bovine serum albumin in 50 mM HEPES pH 7.5).
The resulting mixture was incubated for 1 h at 22° C. to allow the formation of complex between the phosphorylated biotinylated peptide and the detection reagents. Subsequently the amount of phosphorylated substrate was evaluated by measurement of the resonance energy transfer from the Eu-chelate to the streptavidine-XL. Therefore, the fluorescence emissions at 620 nm and 665 nm after excitation at 350 nm were measured in a TR-FRET reader, e.g. a Rubystar (BMG Labtechnologies, Offenburg, Germany) or a Viewlux (Perkin-Elmer). The ratio of the emissions at 665 nm and at 622 nm was taken as the measure for the amount of phosphorylated substrate.

T1 sequence (Q9BUB5 1-424 isoform Q9BUB5-2 T344D): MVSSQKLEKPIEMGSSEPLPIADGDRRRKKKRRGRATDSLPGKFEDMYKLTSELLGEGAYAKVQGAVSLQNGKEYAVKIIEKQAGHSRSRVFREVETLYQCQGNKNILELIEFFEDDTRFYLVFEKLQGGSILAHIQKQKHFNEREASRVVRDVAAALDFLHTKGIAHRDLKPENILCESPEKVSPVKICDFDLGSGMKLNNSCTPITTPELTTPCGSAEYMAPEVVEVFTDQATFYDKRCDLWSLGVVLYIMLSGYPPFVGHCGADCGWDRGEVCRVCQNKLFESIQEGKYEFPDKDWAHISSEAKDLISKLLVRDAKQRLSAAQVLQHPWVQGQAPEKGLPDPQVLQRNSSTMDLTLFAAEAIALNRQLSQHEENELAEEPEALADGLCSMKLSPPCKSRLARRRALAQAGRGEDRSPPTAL

| SMILES | IC50 [pM] | Activity-Ratio MKNK1 |
| --- | --- | --- |
| CCN(C)C(=O)[C@@H]1CCc2c(sc3ncnc(Nc4cc5cn[nH]c5cc4OC)c23)C1 [Example 25, (7R)—N-Ethyl-4-[(6-methoxy-1H-indazol-5-yl)amino]-N-methyl-5,6,7,8-tetrahydro[1]benzothieno[2,3-d]pyrimidine-7-carboxamide] | 8300 | – |
| COc1cc2[nH]ncc2cc1Nc1ncnc2sc3c(c12)CC[C@@H](C(=O)N1CCOCC1)C3 [Example 29, {(7R)-4-[(6-Methoxy-1H-indazol-5-yl)amino]-5,6,7,8-tetrahydro[1]benzothieno[2,3-d]pyrimidin-7-yl}(morpholin-4-yl)methanone] | 8700 | – |
| COc1cc2[nH]ncc2cc1Nc1ncnc2sc3c(c12)CC[C@H](C(=O)N1CCOC[C@@H]1C)C3 [Example 30, {(7S)-4-[(6-Methoxy-1H-indazol-5-yl)amino]-5,6,7,8-tetrahydro[1]benzothieno[2,3-d]pyrimidin-7-yl}[(3S)-3-methylmorpholin-4-yl]methanone] | 300 | – |
| COc1cc2[nH]ncc2cc1Nc1ncnc2sc3c(c12)CC[C@H](C(=O)N1CCOC[C@H]1C)C3 [Example 31, {(7S)-4-[(6-Methoxy-1H-indazol-5-yl)amino]-5,6,7,8-tetrahydro[1]benzothieno[2,3-d]pyrimidin-7-yl}[(3R)-3-methylmorpholin-4-yl]methanone] | 800 | – |
| COc1cc2[nH]ncc2cc1Nc1ncnc2sc3c(c12)CC[C@H](C(=O)N1C[C@@H]2C[C@H]1CO2)C3 [Example 33, {(7S)-4-[(6-Methoxy-1H-indazol-5-yl)amino]-5,6,7,8-tetrahydro[1]benzothieno[2,3-d]pyrimidin-7-yl}[(1S,4S)-2-oxa-5-azabicyclo[2.2.1]hept-5-yl]methanone] | 1500 | – |
| COc1cc2[nH]ncc2cc1Nc1ncnc2sc3c(c12)CC[C@H](C(=O)N1CC(C#N)C1)C3 [Example 35, 1-({(7S)-4-[(6-Methoxy-1H-indazol-5-yl)amino]-5,6,7,8-tetrahydro[1]benzothieno[2,3-d]pyrimidin-7-yl}carbonyl)azetidine-3-carbonitrile] | 700 | – |
| COc1cc2[nH]ncc2cc1Nc1ncnc2sc3c(c12)CC[C@@H](C(=O)N(C)CCO)C3 [Example 39, (7R)—N-(2-Hydroxyethyl)-4-[(6-methoxy-1H-indazol-5-yl)amino]-N-methyl-5,6,7,8-tetrahydro[1]benzothieno[2,3-d]pyrimidine-7-carboxamide] | 9400 | – |
| COCCN(CCO)C(=O)[C@@H]1CCc2c(sc3ncnc(Nc4cc5cn[nH]c5cc4OC)c23)C1 [Example 43, (7R)—N-(2-Hydroxyethyl)-N-(2-methoxyethyl)-4-[(6-methoxy-1H-indazol-5-yl)amino]-5,6,7,8-tetrahydro[1]benzothieno[2,3-d]pyrimidine-7-carboxamide] | 8900 | – |
| COc1cc2[nH]ncc2cc1Nc1ncnc2sc3c(c12)CC[C@H](C(=O)N1CC(N(C)C)C1)C3 [Example 44, [3-(Dimethylamino)azetidin-1-yl]{(7S)-4-[(6-methoxy-1H-indazol-5-yl)amino]-5,6,7,8-tetrahydro[1]benzothieno[2,3-d]pyrimidin-7-yl}methanone] | 200 | – |
| COc1cc2[nH]ncc2cc1Nc1ncnc2sc3c(c12)CC[C@H](C(=O)N1CCC(N(C)C)CC1)C3 [Example 46, [4-(Dimethylamino)piperidin-1-yl]{(7S)-4-[(6-methoxy-1H-indazol-5-yl)amino]-5,6,7,8-tetrahydro[1]benzothieno[2,3-d]pyrimidin-7-yl}methanone] | 100 | – |
| COc1cc2[nH]ncc2cc1Nc1ncnc2sc3c(c12)CC[C@H](C(=O)N1CCC(N(C)CCN(C)C)CC1)C3 [Example 47, (4-{[2-(Dimethylamino)ethyl](methyl)amino}piperidin-1-yl){(7S)-4-[(6-methoxy-1H-indazol-5-yl)amino]-5,6,7,8-tetrahydro[1]benzothieno[2,3-d]pyrimidin-7-yl}methanone] | 500 | – |

Continued, values first:

| IC50 [pM] | Activity-Ratio MKNK1 | SMILES |
| --- | --- | --- |
| 200 | 172.9 | COc1cc2[nH]ncc2cc1Nc1ncnc2sc3c(c12)CC[C@H](C(=O)N(C)C(C)C)C3 [Example 26, (7S)-4-[(6-Methoxy-1H-indazol-5-yl)amino]-N-methyl-N-(propan-2-yl)-5,6,7,8-tetrahydro[1]benzothieno[2,3-d]pyrimidine-7-carboxamide] |
| 38900 | – | COc1cc2[nH]ncc2cc1Nc1ncnc2sc3c(c12)CC[C@@H](C(=O)N(C)C(C)C)C3 [Example 27, (7R)-4-[(6-Methoxy-1H-indazol-5-yl)amino]-N-methyl-N-(propan-2-yl)-5,6,7,8-tetrahydro[1]benzothieno[2,3-d]pyrimidine-7-carboxamide] |
| 300 | 26.1 | COc1cc2[nH]ncc2cc1Nc1ncnc2sc3c(c12)CC[C@H](C(=O)N1CCOCC1)C3 [Example 28, {(7S)-4-[(6-Methoxy-1H-indazol-5-yl)amino]-5,6,7,8-tetrahydro[1]benzothieno[2,3-d]pyrimidin-7-yl}(morpholin-4-yl)methanone] |
| 1000 | – | COc1cc2[nH]ncc2cc1Nc1ncnc2sc3c(c12)CC[C@H](C(=O)N1CC2(COC2)C1)C3 [Example 32, {(7S)-4-[(6-Methoxy-1H-indazol-5-yl)amino]-5,6,7,8-tetrahydro[1]benzothieno[2,3-d]pyrimidin-7-yl}(2-oxa-6-azaspiro[3.3]hept-6-yl)methanone] |
| 500 | – | COc1cc2[nH]ncc2cc1Nc1ncnc2sc3c(c12)CC[C@H](C(=O)N1C[C@H]2C[C@@H]1CO2)C3 [Example 34, {(7S)-4-[(6-Methoxy-1H-indazol-5-yl)amino]-5,6,7,8-tetrahydro[1]benzothieno[2,3-d]pyrimidin-7-yl}[(1R,4R)-2-oxa-5-azabicyclo[2.2.1]hept-5-yl]methanone] |
| 500 | – | COc1cc2[nH]ncc2cc1Nc1ncnc2sc3c(c12)CC[C@H](C(=O)N1CC(C)(O)C1)C3 [Example 36, (3-hydroxy-3-Methylazetidin-1-yl){(7S)-4-[(6-methoxy-1H-indazol-5-yl)amino]-5,6,7,8-tetrahydro[1]benzothieno[2,3-d]pyrimidin-7-yl}methanone] |
| 300 | – | COc1cc2[nH]ncc2cc1Nc1ncnc2sc3c(c12)CC[C@H](C(=O)N(CCO)C1COC1)C3 [Example 37, (7S)—N-(2-Hydroxyethyl)-4-[(6-methoxy-1H-indazol-5-yl)amino]-N-(oxetan-3-yl)-5,6,7,8-tetrahydro[1]benzothieno[2,3-d]pyrimidine-7-carboxamide] |
| 300 | 28.1 | COc1cc2[nH]ncc2cc1Nc1ncnc2sc3c(c12)CC[C@H](C(=O)N(C)CCO)C3 [Example 38, (7S)—N-(2-Hydroxyethyl)-4-[(6-methoxy-1H-indazol-5-yl)amino]-N-methyl-5,6,7,8-tetrahydro[1]benzothieno[2,3-d]pyrimidine-7-carboxamide] |
| 200 | 45.9 | CCN(CCO)C(=O)[C@H]1CCc2c(sc3ncnc(Nc4cc5cn[nH]c5cc4OC)c23)C1 [Example 40, (7S)—N-Ethyl-N-(2-hydroxyethyl)-4-[(6-methoxy-1H-indazol-5-yl)amino]-5,6,7,8-tetrahydro[1]benzothieno[2,3-d]pyrimidine-7-carboxamide] |
| 10500 | – | CCN(CCO)C(=O)[C@@H]1CCc2c(sc3ncnc(Nc4cc5cn[nH]c5cc4OC)c23)C1 [Example 41, (7R)—N-Ethyl-N-(2-hydroxyethyl)-4-[(6-methoxy-1H-indazol-5-yl)amino]-5,6,7,8-tetrahydro[1]benzothieno[2,3-d]pyrimidine-7-carboxamide] |
| 300 | 33.2 | COCCN(CCO)C(=O)[C@H]1CCc2c(sc3ncnc(Nc4cc5cn[nH]c5cc4OC)c23)C1 [Example 42, (7S)—N-(2-Hydroxyethyl)-N-(2-methoxyethyl)-4-[(6-methoxy-1H-indazol-5-yl)amino]-5,6,7,8-tetrahydro[1]benzothieno[2,3-d]pyrimidine-7-carboxamide] |
| 200 | – | COc1cc2[nH]ncc2cc1Nc1ncnc2sc3c(c12)CC[C@H](C(=O)N1CC[C@H](N(C)C)C1)C3 [Example 45, [(3S)-3-(Dimethylamino)pyrrolidin-1-yl]{(7S)-4-[(6-methoxy-1H-indazol-5-yl)amino]-5,6,7,8-tetrahydro[1]benzothieno[2,3-d]pyrimidin-7-yl}methanone] |
